Patent publication US10086066B2, “Tissue targeted antigenic activation of the immune response to treat cancers” (Qu Biologics Inc., priority 2004, dated 2018)

Test system: 4T1 mammary carcinoma cells
Test: Indomethacin efficacy study QB35, 4T1 mammary carcinoma (tumour volume, CD11b+ cells)
Assay type: in vivo, mouse (Balb/c)
Experimental: In an effort to examine the efficacy of combining antigenic composition treatment with indomethacin. Briefly, experiments were designed wherein there were 10 mice in each of 4 groups with all treatments beginning on day 4 after tumour inoculation. All mice (Balb/c female) received 50,000 4T1 mammary carcinoma cells subQ on day 0. Thereafter, the 4 groups were treated as follows: 1) Indomethacin daily (in drinking water)+PBS subQ every 2 days; 2) Indomethacin daily (in drinking water)+S. aureus SSI subQ every 2 days; 3) Control vehicle daily (in drinking water)+PBS subQ every 2 days; and 4) Control vehicle daily (in drinking water)+S. aureus SSI subQ every 2 days.

COc1ccc2c(c1)c(CC(=O)O)c(C)n2C(=O)c1ccc(Cl)cc1 [Indomethacin]
frequency of CD11b+ cells in the tumors relative to the control (day 11, indomethacin daily in drinking water, with PBS or S. aureus SSI (FIG. 35)): significantly increased
CD11b+ cells in the tumours (day 22 (FIG. 36)): increase
